pKd: −log10 of the molar value.
Biological target: Oxytocin receptor (Cavia porcellus)
Assay: Inhibition of radioligand [3H]OT binding to oxytocin receptor (OT) in guinea pig myometrium membrane

Going from `CN(CC(=O)N[C@@H](CCCNC(=N)N)C(=O)NCC(N)=O)C(=O)[C@@H]1CSSC2(CCCCC2)CC(=O)N[C@@H](Cc2ccccc2)C(=O)N[C@@H](Cc2ccccc2)C(=O)N[C@@H](CCC(N)=O)C(=O)N[C@@H](CC(N)=O)C(=O)N1` [[Mca1,D-Phe2,Sar7]AVP] to `CCOc1ccc(C[C@H]2NC(=O)CC3(CCCCC3)SSC[C@@H](C(=O)N(C)CC(=O)N[C@@H](CCCN=C(N)N)C(=O)NCC(N)=O)NC(=O)[C@H](CC(N)=O)NC(=O)[C@H](CCC(N)=O)NC(=O)[C@H](Cc3ccccc3)NC2=O)cc1` [[Mca1,D-Tyr(OEt)2,Sar7]AVP], the pKd falls from 8.15 to 7.68 (0.47 log units).

`CC[C@H](C)[C@@H]1NC(=O)[C@@H](Cc2ccc(OC)cc2)NC(=O)CC2(CCCCC2)SSC[C@@H](C(=O)N(C)CC(=O)N[C@@H](CCCN=C(N)N)C(=O)NCC(N)=O)NC(=O)[C@H](CC(N)=O)NC(=O)[C@H](CCC(N)=O)NC1=O` [[Mca1,D-Tyr(OMe)2,Sar7]AVT] and `CCOc1ccc(C[C@H]2NC(=O)CC3(CCCCC3)SSC[C@@H](C(=O)N(C)CC(=O)N[C@@H](CCCN=C(N)N)C(=O)NCC(N)=O)NC(=O)[C@H](CC(N)=O)NC(=O)[C@H](CCC(N)=O)NC(=O)[C@H]([C@@H](C)CC)NC2=O)cc1` [[Mpa1,D-Tyr(OEt)2,Sar7]AVT] are within 0.2 log units of each other in pKd: 7.74 for the first, 7.82 for the second.

Reference: BindingDB's records for doi:10.1021/jm00028a008 (1994)
